Laboratory results: ChEMBL document CHEMBL4033793, “Potent and Selective Inhibitors of Human Sirtuin 5” (J Med Chem, 2018)
Residues, ends and D or L forms follow the SMILES beside them. *: point of attachment. X13 = O=C(O)[C@@H](CC(=O)*)SCc1cccc([N+](=O)[O-])c1; X27 = O=C(O)[C@H](CC(=O)*)SCc1ccc([N+](=O)[O-])cc1; X15 = CC(C)(C)c1ccc(CS[C@H](CC(=O)*)C(=O)O)cc1; X16 = O=C(O)[C@H](CC(=O)*)SCc1ccc(Cl)c(Cl)c1; X17 = O=C(O)[C@@H](CC(=O)*)Sc1cc(Cl)cc(Cl)c1; X28 = O=C(O)[C@@H](CC(=O)*)Sc1ccc(Cl)c(Cl)c1; X18 = O=C(O)[C@@H](CC(=O)*)Sc1c(Cl)cccc1Cl; X23 = O=C(O)[C@@H](CC(=O)*)Sc1cccc2ccccc12; X24 = O=C(O)[C@H](CC(=O)*)SCc1ccc(Cl)cc1Cl; X29 = COc1ccc(S[C@@H](CC(=O)*)C(=O)O)cc1OC; X30 = COc1ccc(S[C@H](CC(=O)*)C(=O)O)cc1OC; X31 = O=C(O)[C@H](CC(=O)*)Sc1cccc(Cl)c1Cl; X14 = O=C(O)[C@H](CC(=O)*)SCc1ccc(Cl)cc1; X22 = COc1ccc(CS[C@H](CC(=O)*)C(=O)O)cc1; X19 = O=C(O)[C@H](CC(=O)*)Sc1ccc(Cl)cc1; X26 = O=C(O)[C@@H](CC(=O)*)SCCc1ccccc1; X21 = O=C(O)[C@@H](CC(=O)*)SC1CCCCC1; X12 = O=C(O)C(CC(=O)*)SCCc1cnccn1; Bz = O=C(c1ccccc1)*

target: NAD-dependent protein deacylase sirtuin-5, mitochondrial (Homo sapiens, UniProt Q9NXA8); assay: Inhibition of human recombinant N-terminal Strep2-tagged SIRT5 expressed in Escherichia coli BL21 (DE3) using Abz-GVLK(glutaryl)AY(NO2)GV-NH2 as substrate in presence of NAD+ by fluorescence assay
Sequence (Q9NXA8 whole entry): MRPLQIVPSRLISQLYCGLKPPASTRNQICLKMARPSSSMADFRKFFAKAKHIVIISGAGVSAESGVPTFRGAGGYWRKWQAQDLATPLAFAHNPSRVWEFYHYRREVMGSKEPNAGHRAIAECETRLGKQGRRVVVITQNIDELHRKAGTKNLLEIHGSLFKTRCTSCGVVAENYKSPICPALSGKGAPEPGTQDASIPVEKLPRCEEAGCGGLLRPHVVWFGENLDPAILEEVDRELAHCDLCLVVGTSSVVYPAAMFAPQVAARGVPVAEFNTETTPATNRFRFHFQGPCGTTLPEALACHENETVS

Q: For `CC(C)C[C@H](NC(=O)[C@@H](NC(=O)CNC(=O)c1ccccc1)C(C)C)C(=O)N[C@@H](CCCCNC(=O)CC(SCCc1cnccn1)C(=O)O)C(=O)N[C@@H](CCC(=O)O)C(=O)N[C@@H](Cc1ccc(O)cc1)C(=O)NCC(=O)N[C@H](C(N)=O)C(C)C` (some centres undefined) (Bz-GVLK(X12)EYGV-NH2), which IC50 is on record?
A: 22800 nM

Q: What about the Ki of the same compound?
A: 3.5 to 11 nM

Q: `CC(C)C[C@H](NC(=O)[C@@H](NC(=O)CNC(=O)c1ccccc1)C(C)C)C(=O)N[C@@H](CCCCNC(=O)C[C@@H](SCc1cccc([N+](=O)[O-])c1)C(=O)O)C(=O)N[C@@H](CCC(=O)O)C(=O)N[C@@H](Cc1ccc(O)cc1)C(=O)NCC(=O)N[C@H](C(N)=O)C(C)C` (Bz-GVLK(X13)EYGV-NH2) was tested. Which IC50 did it give?
A: 2670 nM

Q: `CC(C)C[C@H](NC(=O)[C@@H](NC(=O)CNC(=O)c1ccccc1)C(C)C)C(=O)N[C@@H](CCCCNC(=O)C[C@H](SCc1ccc(Cl)cc1)C(=O)O)C(=O)N[C@@H](CCC(=O)O)C(=O)N[C@@H](Cc1ccc(O)cc1)C(=O)NCC(=O)N[C@H](C(N)=O)C(C)C` (Bz-GVLK(X14)EYGV-NH2) was tested. Which IC50 did it give?
A: 893 nM

Q: For `CC(C)C[C@H](NC(=O)[C@@H](NC(=O)CNC(=O)c1ccccc1)C(C)C)C(=O)N[C@@H](CCCCNC(=O)C[C@@H](SCc1ccc(C(C)(C)C)cc1)C(=O)O)C(=O)N[C@@H](CCC(=O)O)C(=O)N[C@@H](Cc1ccc(O)cc1)C(=O)NCC(=O)N[C@H](C(N)=O)C(C)C` (Bz-GVLK(X15)EYGV-NH2), which IC50 is on record?
A: 1240 nM

Q: For `CC(C)C[C@H](NC(=O)[C@@H](NC(=O)CNC(=O)c1ccccc1)C(C)C)C(=O)N[C@@H](CCCCNC(=O)C[C@H](SCc1ccc(Cl)c(Cl)c1)C(=O)O)C(=O)N[C@@H](CCC(=O)O)C(=O)N[C@@H](Cc1ccc(O)cc1)C(=O)NCC(=O)N[C@H](C(N)=O)C(C)C` (Bz-GVLK(X16)EYGV-NH2), which IC50 is on record?
A: 740 nM

Q: For `CC(C)C[C@H](NC(=O)[C@@H](NC(=O)CNC(=O)c1ccccc1)C(C)C)C(=O)N[C@@H](CCCCNC(=O)C[C@@H](Sc1cc(Cl)cc(Cl)c1)C(=O)O)C(=O)N[C@@H](CCC(=O)O)C(=O)N[C@@H](Cc1ccc(O)cc1)C(=O)NCC(=O)N[C@H](C(N)=O)C(C)C` (Bz-GVLK(X17)EYGV-NH2), which IC50 is on record?
A: 647 nM

Q: With `CC(C)C[C@H](NC(=O)[C@@H](NC(=O)CNC(=O)c1ccccc1)C(C)C)C(=O)N[C@@H](CCCCNC(=O)C[C@@H](Sc1c(Cl)cccc1Cl)C(=O)O)C(=O)N[C@@H](CCC(=O)O)C(=O)N[C@@H](Cc1ccc(O)cc1)C(=O)NCC(=O)N[C@H](C(N)=O)C(C)C` (Bz-GVLK(X18)EYGV-NH2) as the compound, how does the IC50 read?
A: 12500 nM

Q: Which IC50 does the source give for `CC(C)C[C@H](NC(=O)[C@@H](NC(=O)CNC(=O)c1ccccc1)C(C)C)C(=O)N[C@@H](CCCCNC(=O)C[C@H](Sc1ccc(Cl)cc1)C(=O)O)C(=O)N[C@@H](CCC(=O)O)C(=O)N[C@@H](Cc1ccc(O)cc1)C(=O)NCC(=O)N[C@H](C(N)=O)C(C)C` (Bz-GVLK(X19)EYGV-NH2) here?
A: 102 nM

Q: How did the IC50 turn out when `CC(C)C[C@H](NC(=O)[C@@H](NC(=O)CNC(=O)c1ccccc1)C(C)C)C(=O)N[C@@H](CCCCNC(=O)C[C@@H](SC1CCCCC1)C(=O)O)C(=O)N[C@@H](CCC(=O)O)C(=O)N[C@@H](Cc1ccc(O)cc1)C(=O)NCC(=O)N[C@H](C(N)=O)C(C)C` (Bz-GVLK(X21)EYGV-NH2) was run?
A: > 14000 nM

Q: Which IC50 does the source give for `COc1ccc(CS[C@H](CC(=O)NCCCC[C@H](NC(=O)[C@H](CC(C)C)NC(=O)[C@@H](NC(=O)CNC(=O)c2ccccc2)C(C)C)C(=O)N[C@@H](CCC(=O)O)C(=O)N[C@@H](Cc2ccc(O)cc2)C(=O)NCC(=O)N[C@H](C(N)=O)C(C)C)C(=O)O)cc1` (Bz-GVLK(X22)EYGV-NH2) here?
A: 1110 nM

Q: Which IC50 does the source give for `CC(C)C[C@H](NC(=O)[C@@H](NC(=O)CNC(=O)c1ccccc1)C(C)C)C(=O)N[C@@H](CCCCNC(=O)C[C@@H](Sc1cccc2ccccc12)C(=O)O)C(=O)N[C@@H](CCC(=O)O)C(=O)N[C@@H](Cc1ccc(O)cc1)C(=O)NCC(=O)N[C@H](C(N)=O)C(C)C` (Bz-GVLK(X23)EYGV-NH2) here?
A: 2200 nM

Q: `CC(C)C[C@H](NC(=O)[C@@H](NC(=O)CNC(=O)c1ccccc1)C(C)C)C(=O)N[C@@H](CCCCNC(=O)C[C@H](SCc1ccc(Cl)cc1Cl)C(=O)O)C(=O)N[C@@H](CCC(=O)O)C(=O)N[C@@H](Cc1ccc(O)cc1)C(=O)NCC(=O)N[C@H](C(N)=O)C(C)C` (Bz-GVLK(X24)EYGV-NH2) was tested. Which IC50 did it give?
A: 543 nM

Q: For `CC(C)C[C@H](NC(=O)[C@@H](NC(=O)CNC(=O)c1ccccc1)C(C)C)C(=O)N[C@@H](CCCCNC(=O)C[C@@H](SCCc1ccccc1)C(=O)O)C(=O)N[C@@H](CCC(=O)O)C(=O)N[C@@H](Cc1ccc(O)cc1)C(=O)NCC(=O)N[C@H](C(N)=O)C(C)C` (Bz-GVLK(X26)EYGV-NH2), which IC50 is on record?
A: 592 nM

Q: With `CC(C)C[C@H](NC(=O)[C@@H](NC(=O)CNC(=O)c1ccccc1)C(C)C)C(=O)N[C@@H](CCCCNC(=O)C[C@H](SCc1ccc([N+](=O)[O-])cc1)C(=O)O)C(=O)N[C@@H](CCC(=O)O)C(=O)N[C@@H](Cc1ccc(O)cc1)C(=O)NCC(=O)N[C@H](C(N)=O)C(C)C` (Bz-GVLK(X27)EYGV-NH2) as the compound, how does the IC50 read?
A: 3730 nM

Q: Which IC50 does the source give for `CC(C)C[C@H](NC(=O)[C@@H](NC(=O)CNC(=O)c1ccccc1)C(C)C)C(=O)N[C@@H](CCCCNC(=O)C[C@@H](Sc1ccc(Cl)c(Cl)c1)C(=O)O)C(=O)N[C@@H](CCC(=O)O)C(=O)N[C@@H](Cc1ccc(O)cc1)C(=O)NCC(=O)N[C@H](C(N)=O)C(C)C` (Bz-GVLK(X28)EYGV-NH2) here?
A: 1610 nM

Q: For `COc1ccc(S[C@@H](CC(=O)NCCCC[C@H](NC(=O)[C@H](CC(C)C)NC(=O)[C@@H](NC(=O)CNC(=O)c2ccccc2)C(C)C)C(=O)N[C@@H](CCC(=O)O)C(=O)N[C@@H](Cc2ccc(O)cc2)C(=O)NCC(=O)N[C@H](C(N)=O)C(C)C)C(=O)O)cc1OC` (Bz-GVLK(X29)EYGV-NH2), which IC50 is on record?
A: 326 nM

Q: Which IC50 does the source give for `COc1ccc(S[C@H](CC(=O)NCCCC[C@H](NC(=O)[C@H](CC(C)C)NC(=O)[C@@H](NC(=O)CNC(=O)c2ccccc2)C(C)C)C(=O)N[C@@H](CCC(=O)O)C(=O)N[C@@H](Cc2ccc(O)cc2)C(=O)NCC(=O)N[C@H](C(N)=O)C(C)C)C(=O)O)cc1OC` (Bz-GVLK(X30)EYGV-NH2) here?
A: 9080 nM

Q: `CC(C)C[C@H](NC(=O)[C@@H](NC(=O)CNC(=O)c1ccccc1)C(C)C)C(=O)N[C@@H](CCCCNC(=O)C[C@H](Sc1cccc(Cl)c1Cl)C(=O)O)C(=O)N[C@@H](CCC(=O)O)C(=O)N[C@@H](Cc1ccc(O)cc1)C(=O)NCC(=O)N[C@H](C(N)=O)C(C)C` (Bz-GVLK(X31)EYGV-NH2) was tested. Which IC50 did it give?
A: 715 nM
